Experimental data as given in article PMC5618406, “New Marine Antifouling Compounds from the Red Alga Laurencia sp” (Marine Drugs, 2017).
Read-outs that look alike come from different tables or passages of the source.

Legend:
[1] = Antifouling assay against barnacle larvae; format: in vivo; settings: Amphibalanus amphitrite (barnacle), in vivo, barnacle larvae
Protocol: (§1) An antifouling assay against larvae of the barnacle Amphibalanus amphitrite was conducted according to the previous literature. The antifouling assay against diatoms Nitzschia sp. and Cylindrotheca closterium was conducted as follows. The diatoms were maintained in test tubes under 16 h light and 8 h dark cycle conditions at 25 °C in modified Jorgensen’s medium. Pure compounds were applied to a sample zone (16 mm in diameter) of cellulose TLC aluminum sheet (58 × 58 mm), and then each treated sheet was placed in Petri dish (15 × 90 mm in diameter). After that, 25-mL aliquots of modified Jorgensen’s medium were introduced into Petri dishes with treated sheets, and inoculated with 1 mL of cultivated diatom suspension in equivalent cell densities. Petri dishes were sealed with Parafilm to ensure a closed system, and were incubated under the same conditions. Cell growth was estimated daily, and the adhesive condition was evaluated and compared to those of the control after seven days of incubation.

[2] = tested on: larvae of the barnacle Amphibalanus amphitrite; assay: Antifouling assay against barnacle larvae; format: in vivo; settings: for toxicity to larvae: at 10 µg/mL
Protocol: as §1

Cylindrotheca closterium = assay: Antifouling (anti-diatom) assay on treated cellulose TLC sheet; format: cell-based; settings: at 5–10 µg/cm^2, seven days of incubation
Protocol: as §1

Nitzschia sp. = assay: as above; format: cell-based; settings: at 5–10 µg/cm^2, seven days of incubation
Protocol: as §1

[3] = values in text, read-out: toxicity LC50
[4] = Amphibalanus amphitrite, barnacle larvae, Table 4, read-out: EC50
[5] = Amphibalanus amphitrite, barnacle larvae, values in text, read-out: antifouling activity EC50
[6] = barnacle larvae, values in text
[7] = Table 4, dash entries, read-out: LC50
[8] = Amphibalanus amphitrite, barnacle larvae, Table 4, dash entries, read-out: EC50

| SMILES | LC50 [1, 3] [µg/mL] | EC50 [2, 4] [µM] | EC50 [2, 5] [µg/mL] | LC50 [1, 7] [µg/mL] | further results |
| --- | --- | --- | --- | --- | --- |
| CC[C@@H]1[C@@H]2[C@H]3OC(C=C=CBr)C[C@H]3O[C@]2(O)[C@@H](Br)C[C@H]1Br (relative stereo) [Compound 3, hachijojimallene A] | 9.8 | 0.31 | 0.15 to 0.23 |  | LC50 ([1]; Table 4, read-out: LC50): 20 µM; antifouling activity EC50 [2, 6]: 0.15 µg/mL |
| CC[C@@H]1[C@@H]2[C@H]3OC(C=C=CBr)C[C@H]3O[C@@]23O[C@@H]1C[C@@H]3Br (relative stereo) [Compound 4, hachijojimallene B] | 6.8 | 0.76 | 0.31 |  | LC50 ([1]; Table 4, read-out: LC50): 17 µM |
| CC(C)=CCCC(C)C1(O)CCC2(C)C(Br)CCC(C)(O)C2C1 (centres unmarked) [Compound 1, omaezol] | 3.7 | 0.59 | 0.15 to 0.23 |  | LC50 ([1]; Table 4, read-out: LC50): 9.6 µM; antifouling activity EC50 [2, 6]: 0.23 µg/mL |
| CC(C)(Cl)C(Br)CCC(C)(O)C1CCC(C)(C(O)CCC2OC3(C(C)(O)CCC(Br)C(C)(C)Cl)CCC2(C)O3)O1 (centres unmarked) [Compound 2, intricatriol] |  |  | > 10 | > 10 | EC50 [2, 8]: > 10 µg/mL |
| Cc1ccc2c(c1)O[C@@]1(C=O)[C@@H](C)CC[C@@]21C [Compound 5, debromoaplysinal] |  | 4.3 | 1 | > 10 | toxicity to larvae [2]: did not kill any larvae |
| CC1=C(/C=C/C(C)=C/CC/C(C)=C/CO)C(C)(C)CC(O)C1 (centres unmarked) [Compound 6, 11,12-dihydro-3-hydroxyretinol] |  |  |  |  | anti-diatom activity (Cylindrotheca closterium): showed inhibition; anti-diatom activity (Nitzschia sp.): showed inhibition |
| Cc1cc(O)c([C@]2(C)CC[C@@H]3C[C@@]32C)cc1Br [Compound 8, laurinterol] | 5.8 | 2.2 | 0.65 |  | LC50 ([1]; Table 4, read-out: LC50): 20 µM |
| C=C1[C@@H](C)CC[C@@]1(C)c1cc(Br)c(C)cc1O [Compound 9, isolaurinterol] | > 10 | 1.2 | 0.34 | > 10 |  |
| Cc1ccc([C@]2(C)CC[C@@H]3C[C@@]32C)c(O)c1 [Compound 10, debromolaurinterol] | > 10 | 2.3 | 0.5 | > 10 |  |
| Cc1ccc([C@]2(C)CC[C@@H](Br)C2(C)C)cc1 [Compound 11, α-bromocuparene] |  |  |  | > 10 | EC50 [2, 8]: > 10 µg/mL; antifouling activity ([2]; barnacle larvae, result in words): inactive |
| CC1(C)C(Br)=C[C@H]2O[C@@]2(C)[C@]12C[C@H](Br)[C@@](C)(Cl)C[C@@H]2O [Compound 12, prepacifenol] | > 10 | 1.5 | 0.63 | > 10 | anti-diatom activity (Cylindrotheca closterium): showed inhibition; anti-diatom activity (Nitzschia sp.): showed inhibition |
| CC1(C)[C@]23C[C@H](Br)[C@@](C)(Cl)C[C@@H]2O[C@@]1(Br)C=C[C@@]3(C)O [Compound 13, pacifenol] | > 10 | 5.5 | 2.36 | > 10 |  |
| CC1=C[C@H](O)[C@@H](Br)C(C)(C)[C@]12CC[C@](C)(Cl)[C@@H](Br)C2 [Compound 14, 2,10-dibromo-3-chloro-9-hydroxy-α-chamigrene] | > 10 | 6.1 | 2.51 | > 10 | anti-diatom activity (Cylindrotheca closterium): showed inhibition; anti-diatom activity (Nitzschia sp.): showed inhibition |
| O=S(=O)([O-])[O-].[Cu+2] [CuSO4, reference compound] |  |  |  |  | LC50 ([2]; barnacle larvae, Table 4): 1.4 µM; EC50 ([2]; barnacle larvae, Table 4, read-out: EC50): 0.72 µM; antifouling activity EC50 [2, 6]: 0.18 µg/mL |
| Cn1c(Br)c(Br)c2ccc(Br)cc21 [N-methyl-2,3,6-tribromoindole] |  |  | 4.3 |  | toxicity to larvae [2]: not toxic |
